Results published in patent US6566408B1, “Aqueous surfactant compositions of monoalkyl phosphate ester salts and amphoteric surfactants” (Rhodia, Inc., priority 2000, dated 2003).

Tested on: human subjects (skin of the back)
Experiment: 14-Day Cumulative Irritation Assay (occlusive patch, comparative dermal irritation potential)
Format: in vivo
Source text: In the following study, the tested solutions were at a total surfactant actives content of 0.5% by weight. […] 14-Day Cumulative Irritation Assay of the Comparitive Dermal Irritation Potential of a Series of Test Articles The objective of this study was to determine the comparative dermal irritation potential of a series of nine (9) test articles on twenty-five (25) subjects using a 14-Day Cumulative Irritation Assay. Twenty-five (25) subjects, 1 male and 24 females, ranging in age from 18 to 55 years were empaneled for this test. […] Each day during the duration of the study, patches were removed and the sites were evaluated for irritation using the 6-point scoring system outlined below. […] This procedure was repeated at each visit for a period of fourteen (14) consecutive days, excluding Sundays (Saturday's patches were worn until Monday. Monday's irritation scores were recorded as Sunday's scores and Sunday was counted as an exposure day). Patch test sites were evaluated daily and scores were recorded on a Cumulative Irritation Patch Test recording form. Individual test article scores were calculated via summation of the results for each day. […] The following day's score was “carried back” and recorded for the missed visit day. […]

Structure (SMILES): CCCCCCCCCCCCOS(=O)(=O)[O-].[Na+] [Test Article #9, Sodium lauryl sulphate]
- Total Cum. Irrit. Scores (sum of total cumulative score for 14 days, 22 subjects, highest possible 924, solutions at 0.5% total surfactant actives): 844.5
- Mean Cum. Irrit. Scores (total divided by 22 subjects, highest possible 42, 14 days, 0.5% total surfactant actives): 38.4
